Test results: patent US20230148600A1, “PESTICIDALLY ACTIVE THIOPHENE DERIVATIVES” (SYNGENTA PARTICIPATIONS AG, priority 2017, published 2023)

How the values were obtained:
Format in all cases: in vivo
[1] = system: Euschistus Heros (Neotropical BROWN Stink Bug); test: Euschistus heros (neotropical brown stink bug) feeding/contact activity; conditions: 120 h, application rate 200 ppm, soybean leaves sprayed, N2 nymphs, assessed 5 days after infestation
Procedure: Euschistus Heros (Neotropical BROWN Stink Bug) Feeding/Contact Activity
Soybean leaves on agar in 24-well microtiter plates were sprayed with aqueous test solutions prepared from 10 ′000 ppm DMSO stock solutions. After drying the leaves were infested with N2 nymphs. The samples were assessed for mortality 5 days after infestation.

[2] = system: Spodoptera Littoralis (Egyptian Cotton Leaf Worm); test: Spodoptera littoralis (Egyptian cotton leaf worm) feeding/contact activity; conditions: foliar, 72 h, application rate 200 ppm, cotton leaf discs sprayed, L1 larvae, assessed 3 days after infestation
Procedure: Spodoptera Littoralis (Egyptian Cotton Leaf Worm) Feeding/Contact Activity
(§1) Cotton leaf discs were placed onto agar in 24-well microtiter plates and sprayed with aqueous test solutions prepared from 10 ′000 ppm DMSO stock solutions. After drying the leaf discs were infested with five L1 larvae. The samples were assessed for mortality 3 days after infestation.

[3] = system: Diabrotica Balteata (Corn Root Worm); test: Diabrotica balteata (corn root worm) mortality on sprayed maize sprouts; conditions: 96 h, application rate 200 ppm, L2 larvae, assessed 4 days after infestation
Procedure: Diabrotica Balteata (Corn Root Worm)
Maize sprouts placed onto an agar layer in 24-well microtiter plates were treated with aqueous test solutions prepared from 10 ′000 ppm DMSO stock solutions by spraying. After drying, the plates were infested with L2 larvae (6 to 10 per well). The samples were assessed for mortality 4 days after infestation.

[4] = system: Thrips Tabaci (Onion Thrips); test: Thrips tabaci (onion thrips) feeding/contact activity; conditions: foliar, 144 h, application rate 200 ppm, sunflower leaf discs sprayed, thrips population of mixed ages, assessed 6 days after infestation
Procedure: Thrips Tabaci (Onion Thrips) Feeding/Contact Activity
as §1, with “Sunflower” for “Cotton”, “on” for “onto”, “a thrips population of mixed ages.” for “five L1 larvae.”, “6” for “3”

[5] = system: Myzus Persicae (Green Peach Aphid); test: Myzus persicae (green peach aphid) feeding/contact activity; conditions: foliar, 144 h, application rate 200 ppm, sunflower leaf discs sprayed, aphid population of mixed ages, assessed 6 days after infestation
Procedure: Myzus Persicae (Green Peach Aphid) Feeding/Contact Activity
Sunflower leaf discs were placed onto agar in a 24-well microtiter plate and sprayed with aqueous test solutions prepared from 10 ′000 ppm DMSO stock solutions. After drying, the leaf discs were infested with an aphid population of mixed ages. The samples were assessed for mortality 6 days after infestation.

[6] = system: Tetranychus Urticae (Two-Spotted Spider Mite); test: Tetranychus urticae (two-spotted spider mite) feeding/contact activity; conditions: foliar, 192 h, application rate 200 ppm, bean leaf discs sprayed, mite population of mixed ages, assessed 8 days after infestation, read-out: mortality on mixed population (mobile stages)
Procedure: Tetranychus Urticae (Two-Spotted Spider Mite) Feeding/Contact Activity
Bean leaf discs on agar in 24-well microtiter plates were sprayed with aqueous test solutions prepared from 10 ′000 ppm DMSO stock solutions. After drying the leaf discs were infested with a mite population of mixed ages. The samples were assessed for mortality on mixed population (mobile stages) 8 days after infestation.

[7] = system: Plutella Xylostella (Diamond Back Moth); test: Plutella xylostella (diamond back moth) feeding/contact activity; conditions: 120 h, application rate 200 ppm, artificial diet treated by pipetting, L2 larvae, assessed 5 days after infestation
Procedure: Plutella Xylostella (Diamond Back Moth) Feeding/Contact Activity
24-well microtiter plates with artificial diet were treated with aqueous test solutions prepared from 10 ′000 ppm DMSO stock solutions by pipetting. After drying, the plates were infested with L2 larvae (10 to 15 per well). The samples were assessed for mortality 5 days after infestation.

Measured: mortality at 200 ppm

N#Cc1sc(-c2cnn(-c3c(Cl)cc(C(F)(C(F)(F)F)C(F)(F)F)cc3Cl)c2)cc1C(=O)NC1CC1 [Example 1, 2-cyano-N-cyclopropyl-5-[1-[2,6-dichloro-4-[1,2,2,2-tetrafluoro-1-(trifluoromethyl)ethyl]phenyl]pyrazol-4-yl]thiophene-3-carboxamide]
≥ 80%: all assays above

O=C(NC1CC1)c1cc(-c2cnn(-c3c(Cl)cc(C(F)(C(F)(F)F)C(F)(F)F)cc3Cl)c2)sc1Cl [Example 2, 2-chloro-N-cyclopropyl-5-[1-[2,6-dichloro-4-[1,2,2,2-tetrafluoro-1-(trifluoromethyl)ethyl]phenyl]pyrazol-4-yl]thiophene-3-carboxamide]
≥ 80%: all assays above

N#Cc1sc(-c2cnn(-c3c(Cl)cc(C(F)(C(F)(F)F)C(F)(F)F)cc3Cl)c2)cc1C(=O)NC1(C#N)CC1 [Example 3, 2-cyano-N-(1-cyanocyclopropyl)-5-[1-[2,6-dichloro-4-[1,2,2,2-tetrafluoro-1-(trifluoromethyl)ethyl]phenyl]pyrazol-4-yl]thiophene-3-carboxamide]
not listed: [5]
≥ 80%: all other assays above

N#CC1(NC(=O)c2cc(-c3cnn(-c4c(Cl)cc(C(F)(C(F)(F)F)C(F)(F)F)cc4Cl)c3)sc2Cl)CC1 [Example 4, 2-chloro-N-(1-cyanocyclopropyl)-5-[1-[2,6-dichloro-4-[1,2,2,2-tetrafluoro-1-(trifluoromethyl)ethyl]phenyl]pyrazol-4-yl]thiophene-3-carboxamide]
≥ 80%: all assays above

Cc1cc(C(F)(C(F)(F)F)C(F)(F)F)cc(C)c1-n1cc(-c2cc(C(=O)NC3CC3)c(C#N)s2)cn1 [Example 5, 2-cyano-N-cyclopropyl-5-[1-[2,6-dimethyl-4-[1,2,2,2-tetrafluoro-1-(trifluoromethyl)ethyl]phenyl]pyrazol-4-yl]thiophene-3-carboxamide]
not listed: [3] | [4]
≥ 80%: all other assays above

N#CC1(NC(=O)c2cc(-c3cnn(-c4ccc(C(F)(C(F)(F)F)C(F)(F)F)cc4Cl)c3)sc2Cl)CC1 [Example 6, 2-chloro-5-[1-[2-chloro-4-[1,2,2,2-tetrafluoro-1-(trifluoromethyl)ethyl]phenyl]pyrazol-4-yl]-N-(1-cyanocyclopropyl)thiophene-3-carboxamide]
≥ 80%: [1] | [2] | [6] | [7]

N#CC1(NC(=O)c2cc(-c3cnn(-c4c(Cl)cc(C(F)(C(F)(F)F)C(F)(F)F)cc4Br)c3)sc2Cl)CC1 [Example 7, 5-[1-[2-bromo-6-chloro-4-[1,2,2,2-tetrafluoro-1-(trifluoromethyl)ethyl]phenyl]pyrazol-4-yl]-2-chloro-N-(1-cyanocyclopropyl)thiophene-3-carboxamide]
≥ 80%: [1] | [2] | [6] | [7]

N#Cc1sc(-c2cnn(-c3ccc(C(F)(C(F)(F)F)C(F)(F)F)cc3Cl)c2)cc1C(=O)NC1CC1 [Example 8, 5-[1-[2-chloro-4-[1,2,2,2-tetrafluoro-1-(trifluoromethyl)ethyl]phenyl]pyrazol-4-yl]-2-cyano-N-cyclopropyl-thiophene-3-carboxamide]
not listed: [3] | [4]
≥ 80%: all other assays above

Cc1cc(C(F)(C(F)(F)F)C(F)(F)F)cc(C)c1-n1cc(-c2cc(C(=O)NC3(C#N)CC3)c(Cl)s2)cn1 [Example 10, 2-chloro-N-(1-cyanocyclopropyl)-5-[1-[2,6-dimethyl-4-[1,2,2,2-tetrafluoro-1-(trifluoromethyl)ethyl]phenyl]pyrazol-4-yl]thiophene-3-carboxamide]
not listed: [5]
≥ 80%: all other assays above

CCN(C(=O)c1cc(-c2cn(-c3c(Cl)cc(C(F)(C(F)(F)F)C(F)(F)F)cc3Cl)nn2)sc1C#N)C1CC1 [Example 11, 2-cyano-N-cyclopropyl-5-[1-[2,6-dichloro-4-[1,2,2,2-tetrafluoro-1-(trifluoromethyl)ethyl]phenyl]triazol-4-yl]-N-ethyl-thiophene-3-carboxamide]
not listed: [1] | [5]
≥ 80%: all other assays above

CN(C(=O)c1cc(-c2cn(-c3c(Cl)cc(C(F)(C(F)(F)F)C(F)(F)F)cc3Cl)nn2)sc1C#N)C1CC1 [Example 12, 2-cyano-N-cyclopropyl-5-[1-[2,6-dichloro-4-[1,2,2,2-tetrafluoro-1-(trifluoromethyl)ethyl]phenyl]triazol-4-yl]-N-methyl-thiophene-3-carboxamide]
not listed: [5]
≥ 80%: all other assays above

N#Cc1sc(-c2cn(-c3c(Cl)cc(C(F)(C(F)(F)F)C(F)(F)F)cc3Cl)nn2)cc1C(=O)NC1CC1 [Example 13, 2-cyano-N-cyclopropyl-5-[1-[2,6-dichloro-4-[1,2,2,2-tetrafluoro-1-(trifluoromethyl)ethyl]phenyl]triazol-4-yl]thiophene-3-carboxamide]
≥ 80%: [2] | [3] | [4] | [7]

CCN(C(=O)c1cc(-c2cn(-c3c(Cl)cc(C(F)(C(F)(F)F)C(F)(F)F)cc3Cl)nn2)sc1Cl)C1(C#N)CC1 [Example 14, 2-chloro-N-(1-cyanocyclopropyl)-5-[1-[2,6-dichloro-4-[1,2,2,2-tetrafluoro-1-(trifluoromethyl)ethyl]phenyl]triazol-4-yl]-N-ethyl-thiophene-3-carboxamide]
≥ 80%: [2] | [3] | [4] | [7]

CN(C(=O)c1cc(-c2cn(-c3c(Cl)cc(C(F)(C(F)(F)F)C(F)(F)F)cc3Cl)nn2)sc1Cl)C1(C#N)CC1 [Example 15, 2-chloro-N-(1-cyanocyclopropyl)-5-[1-[2,6-dichloro-4-[1,2,2,2-tetrafluoro-1-(trifluoromethyl)ethyl]phenyl]triazol-4-yl]-N-methyl-thiophene-3-carboxamide]
≥ 80%: [2] | [3] | [4] | [7]

N#CC1(NC(=O)c2cc(-c3cn(-c4c(Cl)cc(C(F)(C(F)(F)F)C(F)(F)F)cc4Cl)nn3)sc2Cl)CC1 [Example 16, 2-chloro-N-(1-cyanocyclopropyl)-5-[1-[2,6-dichloro-4-[1,2,2,2-tetrafluoro-1-(trifluoromethyl)ethyl]phenyl]triazol-4-yl]thiophene-3-carboxamide]
≥ 80%: [2] | [4]
